Measured values as given in PubChem BioAssay (NCI).
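Interpolation was linear, between the two tested concentrations surrounding the appropriate level; five concentrations were tested over 48 hours in 96-well plates. The concentration for 50% growth inhibition is given as GI50. The concentration for full growth arrest is given as TGI.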

Key:
Test in all cases: NCI tumour cell line growth inhibition, 48 h
SK-OV-3 ovarian = test system: SK-OV-3 ovarian
M14 melanoma = test system: M14 melanoma
EKVX NSCLC = test system: EKVX NSCLC
TK-10 renal = test system: TK-10 renal
U251 CNS = test system: U251 CNS
NCI-H460 lung = test system: NCI-H460 lung
HL-60(TB) leukemia = test system: HL-60(TB) leukemia
SR leukemia = test system: SR leukemia
LOX IMVI melanoma = test system: LOX IMVI melanoma
KM12 colon = test system: KM12 colon

Row | Compound | GI50 (SK-OV-3 ovarian) | TGI (SK-OV-3 ovarian) | GI50 (M14 melanoma) | TGI (M14 melanoma) | GI50 (EKVX NSCLC) | TGI (EKVX NSCLC) | GI50 (TK-10 renal) | TGI (TK-10 renal) | GI50 (U251 CNS) | TGI (U251 CNS) | GI50 (NCI-H460 lung) | TGI (NCI-H460 lung) | GI50 (HL-60(TB) leukemia) | TGI (HL-60(TB) leukemia) | GI50 (SR leukemia) | TGI (SR leukemia) | TGI (LOX IMVI melanoma) | TGI (KM12 colon) | GI50 (LOX IMVI melanoma) | GI50 (KM12 colon)
1 | CCCCCCCCCCCCCCCC[N+]1(C)CCOCC1 | 2.2 µM | 7.36 µM | 1.32 µM | 2.98 µM | 3.42 µM | 20.1 µM | 1.86 µM | 4.17 µM | 1.06 µM | 2.34 µM | 1.96 µM | 4.73 µM | 1.31 µM | 3.35 µM | 1.28 µM | 4.66 µM | – | – | – | –
2 | N#CNC(N)=Nc1ccc(Cl)cc1 | – | > 100 µM | – | > 100 µM | – | > 100 µM | – | > 100 µM | – | > 100 µM | – | > 100 µM | – | – | – | > 100 µM | > 100 µM | > 100 µM | – | –
3 | Cc1ccc(NC(=O)c2cc(S(=O)(=O)N3C(=O)NC(=O)NS3(=O)=O)c(S)cc2Cl)cc1 | 67.8 µM | > 100 µM | 24.6 µM | 66.8 µM | 29.5 µM | 96.7 µM | 27.8 µM | 71.3 µM | 27.1 µM | > 100 µM | 29.4 µM | > 100 µM | – | – | – | – | 56.1 µM | 52.2 µM | 20.7 µM | 22.2 µM
4 | O=C1CCCCN1CCCCC#Cc1cccc(C#Cc2cccnc2)c1 | 16.4 µM | 32.2 µM | 14.3 µM | 34.7 µM | 23.5 µM | > 100 µM | 49.8 µM | > 100 µM | 7.05 µM | 22 µM | 19.6 µM | > 100 µM | 16.2 µM | 70 µM | – | – | 25.9 µM | > 100 µM | 8.55 µM | 20.4 µM
5 | COc1cc(NCCCCCCCNC(C)C)c2nccc(C)c2c1 | 13.7 µM | 27.1 µM | 7.38 µM | 20.7 µM | 10.9 µM | 26.5 µM | 17.1 µM | 32.7 µM | 11 µM | 24.2 µM | 12.2 µM | 27.5 µM | 6.94 µM | 23.9 µM | – | – | 21.5 µM | 27.9 µM | 7.03 µM | 13.7 µM
6 | O=c1cc(/C=C/c2ccccc2)[nH]c2cc3c(cc12)OCO3 | – | 15.9 µM | – | 17.1 µM | – | 25 µM | – | 29.4 µM | – | 7.18 µM | – | 10.6 µM | – | – | – | – | – | 17.7 µM | – | –
7 | O=C(/C=C/c1ccccc1)CC(=O)CCC(=O)Nc1ccc(Cl)cc1 | – | > 100 µM | – | > 100 µM | – | > 100 µM | – | > 100 µM | – | > 100 µM | – | > 100 µM | – | > 100 µM | – | – | > 100 µM | > 100 µM | – | –
8 | COC(=O)C1=Nc2c(C)nn(-c3ccccc3)c2N=C(c2ccccc2)C1 | – | > 10 µM | – | > 10 µM | – | – | – | > 10 µM | – | > 10 µM | – | – | – | > 10 µM | – | > 10 µM | > 10 µM | > 10 µM | – | –
9 | CN(C)C(=S)/N=c1\ssc(=S)n1Cc1ccncc1 | – | 72.2 µM | – | 62.9 µM | – | > 100 µM | – | 80.3 µM | – | 39 µM | – | 31.5 µM | – | – | – | 45.4 µM | 39.9 µM | 16.8 µM | – | –
